Data: article PMC1903359, “Engineering of PA-IIL lectin from Pseudomonas aeruginosa – Unravelling the role of the specificity loop for sugar preference” (BMC Structural Biology, 2007)
pKd: −log10 of the molar value. Like-named read-outs stand apart in the source and are kept apart here.

What was measured:
RS-IIL = test system: RS-IIL; set-up: method as in PMID 16768446; settings: cited from earlier work
PA-IIL wild type = settings: cited from earlier work
PA-IIL G24N = PA-IIL G24N (Pseudomonas aeruginosa, UniProt Q9HYN5, G25N); assay: ITC binding of monosaccharides to PA-IIL mutant G24N; settings: for ΔH / -TΔS: ITC at 25°C; for -TΔS: calculated from ΔG and ΔH
PA-IIL S22A = PA-IIL S22A (Pseudomonas aeruginosa, UniProt Q9HYN5, S23A); assay: ITC binding of monosaccharides to PA-IIL mutant S22A; settings: for -TΔS: calculated from ΔG and ΔH
PA-IIL S23A = PA-IIL S23A (Pseudomonas aeruginosa, UniProt Q9HYN5, S24A); assay: ITC binding of monosaccharides to PA-IIL mutant S23A; settings: ITC at 25°C
[1] = biological target: PA-IIL lectin from Pseudomonas aeruginosa, mutant G24N (Pseudomonas aeruginosa); assay: crystal structure; mutants co-crystallised with fucose (hanging drop), soaked 24 h in 10 mM Me-α-D-Man or Me-α-L-Fuc; tetramer in the asymmetric unit
[2] = biological target: PA-IIL lectin from Pseudomonas aeruginosa, mutant S22A (Pseudomonas aeruginosa); assay: as above
[3] = biological target: PA-IIL lectin from Pseudomonas aeruginosa, mutant S23A (Pseudomonas aeruginosa); assay: as above
[4] = PA-IIL wild type, ITC at 25°C, ref Sabin, C. et al, 2006 [14]
[5] = ITC at 25°C, comparison data, Figure 7 gives ref 18

For CO[C@@H]1O[C@@H](C)[C@@H](O)[C@@H](O)[C@@H]1O [Me-α-L-Fuc, methyl α-L-fucopyranoside], which KA (RS-IIL; footnote b: value < 10^4 M^-1) is on record?
The KA was under 10000 M⁻¹.

And the pKd (RS-IIL; footnote b)?
Its pKd is under 4.00.

And the “-TΔS” value (PA-IIL wild type; [4])?
Its value is 4.9 (± 1.0) kJ/mol.

What about the KA (PA-IIL wild type; [4]) of the same compound?
The KA was 235 (± 8.0) ×10^4M^-1.

And the pKd (PA-IIL wild type; [4])?
Its pKd is 6.37.

And the ΔG (PA-IIL wild type; [4])?
Its ΔG is -36.4 (± 0.1) kJ/mol.

And the ΔH (PA-IIL wild type; [4])?
Its ΔH is -41.3 (± 1.0) kJ/mol.

And the “entropic contribution TΔS” value (PA-IIL wild type; native (wild type) PA-IIL, sign as TΔS)?
The value was -1.17 kcal/mol.

With CO[C@@H]1O[C@@H](CO)[C@@H](O)[C@@H](O)[C@@H]1O [Me-α-L-Gal, methyl α-L-galactopyranoside] as the compound, how does the ΔH (PA-IIL G24N) read?
The ΔH was -18.7 (± 0.3) kJ/mol.

And the “-TΔS” value (PA-IIL G24N)?
Its value is -15.0 (± 0.9) kJ/mol.

And the ΔH (PA-IIL S22A; S22A, ITC at 25°C)?
The ΔH was -19.2 (± 0.2) kJ/mol.

And the “-TΔS” value (PA-IIL S22A; S22A, ITC at 25°C)?
Its value is -8.3 (± 0.3) kJ/mol.

What about the “-TΔS” value (PA-IIL wild type; [4]) of the same compound?
The value was -2.3 (± 0.7) kJ/mol.

And the KA (PA-IIL wild type; [4])?
Its KA is 85.0 (± 5.0) ×10^4M^-1.

And the pKd (PA-IIL wild type; [4])?
Its pKd is 5.93.

What about the ΔH (PA-IIL wild type; [4]) of the same compound?
Its ΔH is -31.5 (± 0.6) kJ/mol.

What about the ΔH (PA-IIL S23A) of the same compound?
Its ΔH is -26.8 (± 1.7) kJ/mol.

With CO[C@H]1O[C@H](CO)[C@@H](O)[C@H](O)[C@@H]1O [Me-β-D-Man, methyl α-D-mannopyranoside] as the compound, how does the “-TΔS” value (RS-IIL; [5]) read?
The value was -13.0 (± 0.2) kJ/mol.

And the KA (RS-IIL; [5])?
The KA was 438 (± 2.0) ×10^4M^-1.

What about the pKd (RS-IIL; [5]) of the same compound?
Its pKd is 6.64.

What about the ΔG (RS-IIL; [5]) of the same compound?
Its ΔG is -37.9 (± 0.1) kJ/mol.

What about the ΔH (PA-IIL G24N) of the same compound?
The ΔH was -27.1 (± 0.8) kJ/mol.

And the “-TΔS” value (PA-IIL G24N)?
The value was 2.1 (± 0.9) kJ/mol.

What about the “entropic contribution as share of the total Gibbs energy change” value (PA-IIL G24N; unfavourable entropic contribution) of the same compound?
Its value is 8%.

What about the “times higher affinity of the mutant compared to the wild type protein” value (PA-IIL S22A; S22A versus wild type PA-IIL) of the same compound?
Its value is 25 times.

What about the “total difference in free energy, mutant versus wild type” value (PA-IIL S22A; S22A versus wild type PA-IIL) of the same compound?
The value was -1.91 kcal/mol.

What about the “-TΔS” value (PA-IIL S22A; S22A, ITC at 25°C) of the same compound?
The value was -7.4 (± 0.7) kJ/mol.

And the “favourable entropic contribution TΔS” value (PA-IIL S22A; S22A, sign as TΔS)?
Its value is 1.77 kcal/mol.

What about the ΔH (PA-IIL S23A) of the same compound?
The ΔH was -16.7 (± 2.3) kJ/mol.

What about the KA (PA-IIL S23A; 0.1 M Tris-HCl, 30 μM CaCl2, pH 7.5) of the same compound?
Its KA is 1.91 (± 0.33) ×10^4M^-1.

What about the “-TΔS” value (PA-IIL S23A; calculated from ΔG and ΔH) of the same compound?
The value was -7.7 (± 2.7) kJ/mol.

For “PA-IIL lectin from Pseudomonas aeruginosa, mutant G24N (natural protein)”, which stoichiometry N [1] is on record?
Its stoichiometry N is 4.

Which stoichiometry N [2] does the source give for “PA-IIL lectin from Pseudomonas aeruginosa, mutant S22A (natural protein)” here?
Its stoichiometry N is 4.

Which stoichiometry N [3] does the source give for “PA-IIL lectin from Pseudomonas aeruginosa, mutant S23A (natural protein)” here?
Its stoichiometry N is 4.
